Data as given in patent publication US20150359798A1, “PIPERAZINYL DERIVATIVE REDUCES HIGH-FAT DIET-INDUCED ACCUMULATION OF FAT IN THE LIVERS, […]” (priority 2011, published 2015).

How the values were obtained:
mice fed with HFD = assay: HFD-fed mice, 8 weeks, gavage: serum/liver lipids, body weight, food intake; type: in vivo; settings: HFD mice, 8 weeks
Experimental: In the 8 week experiment, C57BL/6J male mice (21-22 g), after fasting, were fed a HFD as a model of hyperlipidemia for 8 weeks. During the 2 month experiments, mice fasted for one night before the experiment was changed from a standard diet (STD) to a HFD and then the mice were randomly divided into 5 groups, including 2 control and 3 treatment groups. Six mice were used in each group. […] Liver from the protection group supplemented with KMUP-1 HCl (1 mg/kg/day) were used to determine the HMG CoA reductase expression.
Within 2 months, the 3 day food intake average for each animal was measured. The weight gain and plasma lipid levels of each group were determined and compared to the non-treatment control group. Mouse blood was collected during the daytime by cardiac puncture followed by centrifugation at 90 g (Benchtop Centrifuge, U.S.A.) to separate the serum, and frozen at −80° C., for biochemical analysis using a Hitachi Clinical Analyzer 7070 (Hitachi High-Technologies Co. Tokyo, Japan). Agents used in the assays were Obtained from Merck & Co. (Kenilworth, N.J., U.S.A.). Triglyceride (TG), total cholesterol, HDL cholesterol and LDL cholesterol in mouse serum were measured by methods used in the clinic. To measure the hepatic TG, isolated liver were cut into small chips.

ABCA1 = ABCA1 expression in liver of HFD mice (8 weeks); type: in vivo; settings: animals treated with HFD
PKA = assay: Hepatic PKA expression (14-week experiment); type: in vivo, mice; settings: drinking KMUP-1; protection and treatment groups
TNF-α = assay: IHC staining of TNF-α in steatohepatitis liver; type: in vivo, mice; settings: 2.5 mg/kg/day, 14 weeks (protection) and 6 weeks (treatment)
Experimental: (§1) In the 14-week experiment, mice were fed a HFD from week 1 to week 14. During the 3 month experiments, KMUP-1 HCl (2.5 mg) was added to 200 ml tap water and) and drink for 14 weeks or for the last 6 weeks on mice or obese mice fed HFD, separately. 5 mice had free access to drinking water from week 1 to week 14 (protective group) or from week 8 to week 14 (treatment group). Tap water was used to normalize mineral nutrition (Scheme A).
(§2) For IHC of MMP-9/TNFα, HSL/p-HSL/ATGL and eNOS/IL-10, antigen retrieval of de-paraffinated sections was performed in Dako target retrieval solution, pH 9.0, in a vegetable steamer followed by the quenching of endogenous peroxidase activity with 3.0% H2O2 in methanol. Sections were then incubated with specific primary antibodies overnight at 4° C. in a humidified chamber. The antibodies used included rabbit polyclonal anti-eNOS (1:50 dilution) (Abcam, Cambridge, UK) or rabbit monoclonal anti-cleaved caspase-3 (1:50 dilution) (Cell Signaling, USA). The sections were then examined using a DAKO REAL EnVision™ Detection System kit (DAKO, Carpinteria, Calif.) and counterstained with hematoxylin. Images were obtained through a Nikon Eclipse TE200-S microscope.

epididymal fat pads = assay: H&E staining, weight and cell diameter of epididymal fat pads; type: in vivo, mice
Experimental: as §1
Mice liver and epididymal fat pads were cut and soaked in formalin, dehydrated through graded alcohols and embedded in paraffin. Specimens of liver tissues and epididymal fat pads fixed with formalin (4%) were embedded in paraffin for one hour at 4° C., cut into […] sections, and subjected to H&E staining before examination by light microscope. In heart tissues, the 4-μm-thick paraffin sections were cut from paraffin-embedded tissue blocks and de-paraffinized by immersion in xylene and rehydrated. The slices were then dyed with H&E. After gently rinsing with water, each slide was dehydrated through graded alcohols and finally soaked in xylene twice.

HSL [1] = assay: IHC staining of HSL in epididymal fat pads; type: in vivo, mice; settings: protection, 2.5 mg/kg/day
Experimental: as §2

eNOS = eNOS expression in HepG2 cells; type: cell-based
Experimental: (§3) HepG2 cells were treated with various concentrations of drugs for 24 hours. Reactions were terminated by washing twice with cold PBS, and the cells were then harvested, Proteins in the whole-cell lysate were homogenized in an ice-cold lysis buffer and a protease inhibitor (Sigma-Aldrich, St. Louis, Mo., U.S.A.). The homogenate was centrifuged at 90, 000 g for 15 minutes at 4° C., and supernatant was recovered as the total cellular protein. Cytosolic and membrane fractions of HepG2 cells were prepared using a. CNM (Cytosol Nuclear Membrane) compartment protein extraction kit (BioChain Institute Inc., Hayward, Calif., U.S.A.) according to the manufacturer's instructions. All of the fractionated protein solutions were stored at −80° C. until analysis. To measure the expression levels of proteins by drugs, the total cell protein was extracted after incubation with treatments for 24 hours and then Western blotting analysis was performed as described previously.

PPARγ = PPARγ expression in HepG2 cells; type: cell-based
Experimental: as §3

ApoA-I = ApoA-I expression in HepG2 cells; type: cell-based; settings: HepG2, 10^−9-10^−5 M
Experimental: as §3

HSL [2] = assay: HSL immunoreactivity in HepG2 cells; type: cell-based
[3] = biological target: T1, Human recombinant HMG CoA reductase (Homo sapiens, UniProt P04035); assay: HMG CoA reductase activity, [14C]mevalonate formation; type: biochemical; settings: 10 μM
T1 construct: purchased Sigma-Aldrich (printed 'Sigma-Adrich') H7039; host or cells: E. coli
T1 sequence (P04035 426-888 limits assumed): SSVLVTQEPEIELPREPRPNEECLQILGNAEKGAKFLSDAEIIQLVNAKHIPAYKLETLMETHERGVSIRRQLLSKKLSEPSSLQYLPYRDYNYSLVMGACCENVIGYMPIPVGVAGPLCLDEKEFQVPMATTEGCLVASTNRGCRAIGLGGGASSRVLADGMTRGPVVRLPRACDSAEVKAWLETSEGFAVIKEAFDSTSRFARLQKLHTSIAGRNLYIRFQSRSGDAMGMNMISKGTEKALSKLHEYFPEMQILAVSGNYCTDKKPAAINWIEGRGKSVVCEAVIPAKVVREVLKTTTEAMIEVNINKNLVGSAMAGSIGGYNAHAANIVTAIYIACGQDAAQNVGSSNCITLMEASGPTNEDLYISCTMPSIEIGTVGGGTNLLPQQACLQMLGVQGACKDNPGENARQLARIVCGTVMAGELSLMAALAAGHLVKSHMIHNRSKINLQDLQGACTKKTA
Experimental: Human recombinant HMG CoA reductase expressed in E. coli (H7039, Sigma-Adrich, Mo, U.S.A.) was used. Human recombinant HMG-CoA reductase, examined by SDS-PAGE to be ≧90% in purity, 2-8 units/mg protein in activity and ˜76 kDa in molecular weight (H7039, Sigma-Adrich, St. Louis, Mo. U.S.A.), was used for determining the formation of [^14C]mevalonate. […] The reaction was initiated by the addition of 2.5 μM [^14C]HMG-CoA for another 20 minutes incubation period and terminated by further addition of 1 N HCl. An aliquot was removed by column and counted to determine the amount of [^14C]mevalonate formed (Ricera® Co. Ltd., Taipei, Taiwan).

Rho-kinase = assay: Table 3 Rho-kinase (% of control); type: cell-based; settings: control group = 100 (%)

Cn1c(=O)c2c(ncn2CCN2CCN(c3ccccc3Cl)CC2)n(C)c1=O [KMUP-1, 7-[2-[4-(2-chlorophenyl)piperazinyl]ethyl]-1,3-dimethyl xanthine]
HDL cholesterol level (mice fed with HFD): significantly increased
HFD-induced hypercholesterolemia (mice fed with HFD): significantly improved
HDL cholesterol (mice fed with HFD; 2.5 mg/kg): 103.6 ± 4.2 mg/dL
LDL cholesterol (mice fed with HFD; 2.5 mg/kg): 14.2 ± 1.4 mg/dL
TG in serum (mice fed with HFD; 2.5 mg/kg): 74.5 ± 5.1 mg/dL
TG of liver (mice fed with HFD; 2.5 mg/kg): 28.4 ± 3.6 mg/dL
Tot. chol. (total cholesterol) (mice fed with HFD; 2.5 mg/kg): 133.0 ± 5.1 mg/dL
final BW (Body weight) (mice fed with HFD; 2.5 mg/kg): 25.7 ± 0.7 g
HDL cholesterol (mice fed with HFD; 5 mg/kg): 118.3 ± 5.7 mg/dL
LDL cholesterol (mice fed with HFD; 5 mg/kg): 14.2 ± 2.2 mg/dL
TG in serum (mice fed with HFD; 5 mg/kg): 72.7 ± 4.7 mg/dL
TG of liver (mice fed with HFD; 5 mg/kg): 26.12 ± 3.1 mg/dL
Tot. chol. (total cholesterol) (mice fed with HFD; 5 mg/kg): 125.5 ± 9.8 mg/dL
final BW (Body weight) (mice fed with HFD; 5 mg/kg): 24.3 ± 0.5 g
ABCA1 in liver (ABCA1): activated
hepatic PKA expression (PKA): promote
TNF-α immunohistochemistry on fatty liver slices (TNF-α): inhibited partial
epididymal fat pad weight (epididymal fat pads; 2.5 mg/kg/day for 14 weeks): significantly reduced
fat cell diameter (epididymal fat pads; 2.5 mg/kg/day for 14 weeks): significantly reduced
HFD-induced hypertrophy/hyperplasia of epididymal fat pads (H&E) (epididymal fat pads; protection, 2.5 mg/kg): inhibited
IHC staining of HSL in epididymal fat pads (HSL [1]): increased
expression of eNOS (eNOS): concentration-dependently increased
increase of PPARγ (PPARγ; HepG2): 2-3 fold
expression of PPARγ (PPARγ; HepG2, 10^−9-10^−5 M): increased
FPP- or GGPP-suppressed expression of PPARγ (PPARγ; HepG2, KMUP-1 10^−9-10^−5 M with FPP or GGPP): reversed
PPARγ expression (FIG. 24C) (PPARγ; HepG2, simvastatin, KMUP-1, Y27632 10^−5M, C3 exoenzyme): increased
ApoA-I expression (ApoA-I): concentration-dependently increased
HSL immunoreactivity (green fluorescence) (HSL [2]): increased
[14C]mevalonate formation [3]: could not reduce
Rho-kinase (Rho-kinase; 0.1 μM): 82.8 ± 7.8%
Rho-kinase (Rho-kinase; 1.0 μM): 78.4 ± 6.9%
Rho-kinase (Rho-kinase; 10 μM): 75.8 ± 6.4%
